Data taken from US9849102B2, “Treatment for reducing inflammation” (ISIFER AB, priority 2010, dated 2017).
Entries after “also recorded” stand apart in the source; their conditions may differ.

Legend:
Type in all cases: cell-based, human
IL-1β = assay: ELISA of IL-1β in cell medium of endometriosis cells incubated with lidocaine
Experimental: (§1) During laparotomy, human endometriosis tissue biopsies from endometriosis cysts were obtained from four women during laparotomy. The tissue samples were handled aseptically, transported to the laboratory and frozen in fluid nitrogen to −150° C. The biopsies were later verified histologically as endometriosis tissue. The sampling procedure was approved by the Ethical Committee. The frozen endometriosis tissues were thawed in water at +37° C. and then transferred to test tubes. Two tissue biopsy samples were taken from each endometrioma and prepared as follows: the endometriosis tissue covering the inside of endometriosis cysts was detached from encapsulating fibrous tissue by gentle scraping with a knife. The tissue was then exposed for 0.2% collagenase Type III (Worthington Biochemical Corporation Freehold, N.J., USA) for 2 h. The cell suspension was then centrifuged at 1500 rpm for 10 min. The cells were re-suspended in RPMI 1640 cell culture medium with L-glutamine and phenol red (Invitrogen Ltd), 20% Foetal Bovine serum (Invitrogen Ltd), sodium pyruvate, MEM 100 mM (Invitrogen Ltd), non-essential amino acids (Invitrogen Ltd), heparin 90 μg/ml (Sigma-Aldrich Fine Chemicals St Louis, Mo., USA), penicillin-streptomycin with 10.000 Units/ml penicillin G sodium and 10.000 μg/ml streptomycin sulphate in 0.85% saline (Invitrogen Ltd), Hepes buffer solution 1M (Invitrogen Ltd) and seeded in T-75 cm^2 cell culture flasks (Nunc, Roskilde, Denmark) pre-coated with 0.2% gelatin (Sigma-Aldrich). The culture medium was changed the following day and thereafter once a week. When confluent monolayers were obtained after 3 weeks, the cultures were tryptinized cultures from passages 4 and 6 were frozen in fluid nitrogen to −150° C. and later used for experiments.
(§2) The lidocaine treatments of the cells were performed in duplicates on the endometriosis cells that were used for experiments. […] The production of MCP-1, TNF-α and […] was measured according to the manufacturer's using an enzyme-linked immunosorbent assay (ELISA, Quantikine, R&D Systems, Minneapolis, Minn. 55413, USA).

TNF-α = assay: ELISA of TNF-α production from endometriosis cells incubated with lidocaine
Experimental: as §1, §2

MCP-1 = assay: ELISA of MCP-1 production from endometriosis cells incubated with lidocaine
Experimental: as §1, §2

[1] = incubation with lidocaine 1 mg/ml, 24 and 48 h, versus control

Structure (SMILES): CCN(CC)CC(=O)Nc1c(C)cccc1C [Lidocaine]
- concentration of IL-1β in the cell medium (in words) (IL-1β; before and after incubation with lidocaine): at a low level
- IL-1β in Lidocaine medium 24 h (IL-1β; human endometriosis cell culture medium, lidocaine hydrochloride 1 mg/ml, 24 h, control medium 24 h <5.00): <5.00 pg/mL
- IL-1β in Lidocaine medium 48 h (IL-1β; human endometriosis cell culture medium, lidocaine hydrochloride 1 mg/ml, 48 h, control medium 48 h <5.00): <5.00 pg/mL
- TNF-α in Lidocaine medium 24 h (TNF-α; human endometriosis cell culture medium, lidocaine hydrochloride 1 mg/ml, 24 h, control medium 24 h 8.2): 9.4 pg/mL
- TNF-α in Lidocaine medium 48 h (TNF-α; human endometriosis cell culture medium, lidocaine hydrochloride 1 mg/ml, 48 h, control medium 48 h 10.5): 10.0 pg/mL
- production of TNF-α from endometriosis cells (in words) (TNF-α; [1]): unaffected
- MCP-1 in Lidocaine medium 24 h (MCP-1; human endometriosis cell culture medium, lidocaine hydrochloride 1 mg/ml, 24 h, control medium 24 h 145.0): 62.0 pg/mL
- MCP-1 in Lidocaine medium 48 h (MCP-1; human endometriosis cell culture medium, lidocaine hydrochloride 1 mg/ml, 48 h, control medium 48 h 315.0): 122.0 pg/mL
- MCP-1 production from endometriosis cells (in words) (MCP-1; [1]): substantial reduction; also recorded: seems to be reduced
